Where only a bound is given, the exact number is not on record here.

Chain of Recombinant human HSD17B13 enzyme (Q7Z5P4 20-300): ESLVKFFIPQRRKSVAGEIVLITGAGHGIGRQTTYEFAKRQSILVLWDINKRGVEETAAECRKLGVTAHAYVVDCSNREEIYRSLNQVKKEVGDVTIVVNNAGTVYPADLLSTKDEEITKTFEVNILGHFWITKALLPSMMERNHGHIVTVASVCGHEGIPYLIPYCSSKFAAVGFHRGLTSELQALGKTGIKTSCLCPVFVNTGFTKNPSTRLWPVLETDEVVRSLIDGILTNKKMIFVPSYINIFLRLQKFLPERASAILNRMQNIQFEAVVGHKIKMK

The first assay has as its target Recombinant human HSD17B13 enzyme (Homo sapiens (Human), UniProt Q7Z5P4). Nature of the assay: HSD17b13 NAD(P)H-Glo Biochemical Assay. The following applies: 50 uM estradiol, 1 mM NAD+; read-out: HSD17β13 IC50. In short, it runs like this: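 Luminescent NAD(P)H-Glo detection (1 h, RT) quantified cofactor reduction after a 3 h, 37° C reaction of human HSD17B13 with estradiol (50 uM final) and NAD+ (1 mM final). Compounds were first pre-incubated 20 min at RT with enzyme in Tris pH 7.4 buffer containing Tween-20 and BSA.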
As to `CS(=O)(=O)N1CCN(c2cc3cnn(-c4cc(O)c(F)c(F)c4)c3cc2C2CC2)CC1` [Compound 21.49, 5-(6-Cyclopropyl-5-(4-(meth-ylsulfonyl)piperazin-1-yl)-1H-indazol-1-yl)-2,3-difluoro-phenol], the IC50 was in the range of 100 to 1000 nM.
The same measure, in the same setting: under `Cc1nn(-c2cc(O)c(F)c(C(F)(F)F)c2)c2cnc(N3CCN(S(C)(=O)=O)CC3)cc12` [Compound 21.50, 2-Fluoro-5-(3-methyl-5-(4-(methylsulfonyl)piperazin-1-yl)-1H-pyrazolo[3,4-c]-pyridine-1-yl)-3-(trifluoro-methyl)phenol] stands 100 to 1000 nM; under `CS(=O)(=O)N1CCN(c2cc3c(C4CC4)nn(-c4cc(O)c(F)c(C(F)(F)F)c4)c3cn2)CC1` [Compound 21.51, 5-(3-Cyclopropyl-5-(4-(meth-ylsulfonyl)piperazin-1-yl)-1H-pyrazolo[3,4-c]pyridine-1-yl)-2-fluoro-3-(trifluoromethyl)-phenol], 100 to 1000 nM.
Still for that read-out and setting: under `CS(=O)(=O)N1CCN(c2ncc3c(cnn3-c3cc(O)c(F)c(C(F)(F)F)c3)n2)CC1` [Compound 21.52, 2-Fluoro-5-(5-(4-(methyl-sulfonyl)piperazin-1-yl)-1H-pyrazolo[4,3-d]pyrimidin-1-yl)-3-(trifluoromethyl)phenol] stands 100 to 1000 nM; under `CS(=O)(=O)N1CCN(c2cc3c(F)nn(-c4cc(O)c(F)c(C(F)(F)F)c4)c3cn2)CC1` [Compound 21.53, 2-Fluoro-5-(3-fluoro-5-(4-(methylsulfonyl)piperazin-1-yl)-1H-pyrazolo[3,4-c]pyridin-1-yl)-3-(trifluoromethyl)phenol], less than 100 nM; under `Oc1cc(-n2ncc3cc(N4CCOCC45CC5)ncc32)cc(C(F)(F)F)c1F` [Compound 21.54, 5-(5-(7-Oxa-4-azaspiro[2.5]-octan-4-yl)-1H-pyrazolo[3,4-c]pyridin-1-yl)-2-fluoro-3-(trifluoromethyl)phenol], 100 to 1000 nM.
On the same count and under the same terms, then `C[C@@H]1COCCN1c1cc2cnn(-c3cc(O)c(F)c(C(F)(F)F)c3)c2cn1` [Compound 21.55, (R)-2-Fluoro-5-(5-(3-methyl-morpholino)-1H-pyrazolo[3,4-c]pyridin-1-yl)-3-(trifluoro-methyl)phenol], with 100 to 1000 nM; and `C[C@H]1COCCN1c1cc2cnn(-c3cc(O)c(F)c(C(F)(F)F)c3)c2cn1` [Compound 21.56, (S)-2-Fluoro-5-(5-(3-methyl-morpholino)-1H-pyrazolo[3,4-c]pyridin-1-yl)-3-(trifluoro-methyl)phenol], with 100 to 1000 nM; and `Oc1cc(-n2ncc3cc(N4CCOCC4)ncc32)cc(C(F)(F)F)c1F` [Compound 21.57, 2-Fluoro-5-(5-morpholino-1H-pyrazolo[3,4-c]pyridin-1-yl)-3-(trifluoromethyl)phenol], with 100 to 1000 nM.
`CN(c1ccc2c(c1)c(F)nn2-c1cc(C(F)(F)F)c(F)c(O)c1F)C1CCOCC1` [Compound 21.58, 2,6-Difluoro-3-(3-fluoro-5-(methyl(tetrahydro-2H-pyran-4-yl)amino)-1H-indazol-1-yl)-5-(trifluoromethyl)phenol]: the IC50 was in the range of 100 to 1000 nM.
Still for that read-out and setting: then `Oc1c(F)c(-n2nnc3cc(N4CCOCC45CC5)ncc32)cc(C(F)(F)F)c1F` [Compound 21.59, 3-(6-(7-Oxa-4-azaspiro[2.5]-octan-4-yl)-3H-[1,2,3]triazolo-[4,5-c]pyridin-3-yl)-2,6-difluoro-5-(trifluoromethyl)-phenol], with 100 to 1000 nM; and `Oc1c(F)c(-n2cnc3cc(N4CCOCC45CC5)ncc32)cc(C(F)(F)F)c1F` [Compound 21.60, 3-(6-(7-Oxa-4-azaspiro[2.5]-octan-4-yl)-3H-imidazo[4,5-c]pyridin-3-yl)-2,6-difluoro-5-(trifluoromethyl)phenol], with 1000 to 30000 nM.
Same read-out and setting: then `COc1ccc(Nc2ccc3c(cnn3-c3ccc(F)c(O)c3)c2)cc1Cl` [Compound 22, 5-(5-((3-Chloro-4-methoxyphenyl)amino)-1H-indazol-1-yl)-2-fluorophenol], with 100 to 1000 nM.
The same measure, in the same setting: under `Oc1cc(-n2ncc3cc(Nc4ccc(O)c(Cl)c4)ccc32)ccc1F` [Compound 23, 2-Chloro-4-((1-(4-fluoro-3-hydroxyphenyl)-1H-indazol-5-yl)amino)phenol] stands 100 to 1000 nM.
Regarding `CC(=O)N1CCC(Oc2ccc3c(cnn3-c3cc(O)c(F)c(F)c3)c2)CC1` [Compound 24, 1-(4-((1-(3,4-Difluoro-5-hydroxyphenyl)-1H-indazol-5-yl)oxy)piperidin-1-yl)ethan-1-one], the IC50 fell in the range of 1000 to 30000 nM.
Same read-out and setting: then `CC(=O)N1CC(Oc2ccc3c(cnn3-c3cc(O)c(F)c(F)c3)c2)C1` [Compound 24.01, 1-(3-((1-(3,4-Difluoro-5-hydroxyphenyl)-1H-indazol-5-yl)oxy)azetidin-1-yl)ethan-1-one], with 100 to 1000 nM.
For `CS(=O)(=O)N1CC(Oc2ccc3c(cnn3-c3cc(O)c(F)c(F)c3)c2)C1` [Compound 25, 2,3-Difluoro-5-(5-((1-(methylsulfonyl)azetidin-3-yl)oxy)-1H-indazol-1-yl)phenol], the IC50 fell in the range of 100 to 1000 nM.
Turning to `CS(=O)(=O)N1CCC(Oc2ccc3c(cnn3-c3cc(O)c(F)c(F)c3)c2)CC1` [Compound 25.01, 2,3-Difluoro-5-(5-((1-(methyl-sulfonyl)piperidin-4-yl)oxy)-1H-indazol-1-yl)phenol], the IC50 was 1000 to 30000 nM.
The same measure, in the same setting: then `CC(=O)N1CCC(c2ccc3c(cnn3-c3ccc(F)c(O)c3)c2)CC1` [Compound 26, 1-(4-(1-(4-Fluoro-3-hydroxyphenyl)-1H-indazol-5-yl)piperidin-1-yl)ethan-1-one], with 1000 to 30000 nM.
On the same count and under the same terms, under `CS(=O)(=O)N1CCC(c2ccc3c(cnn3-c3ccc(F)c(O)c3)c2)CC1` [Compound 26.01, 2-Fluoro-5-(5-(1-(methyl-sulfonyl)piperidin-4-yl)-1H-indazol-1-yl)phenol] stands 1000 to 30000 nM; under `CNC(=O)N1CCC(c2ccc3c(cnn3-c3ccc(F)c(O)c3)c2)CC1` [Compound 26.02, 4-(1-(4-Fluoro-3-hydroxy-phenyl)-1H-indazol-5-yl)-N-methylpiperidine-1-carboxamide], 100 to 1000 nM; under `CS(=O)(=O)N1CCC(c2ccc3c(cnn3-c3cc(O)c(F)c(F)c3)c2)CC1` [Compound 27, 2,3-Difluoro-5-(5-(1-(methylsulfonyl)piperidin-4-yl)-1H-indazol-1-yl)phenol], less than 100 nM.
On to `CS(=O)(=O)N1CCC(c2cc3cnn(-c4cc(O)c(F)c(F)c4)c3cc2Cl)CC1` [Compound 27.01, 5-(6-Chloro-5-(1-(methyl-sulfonyl)piperidin-4-yl)-1H-indazol-1-yl)-2,3-difluoro-phenol], for which the IC50 lay in the range of 1000 to 30000 nM.
Consider `CS(=O)(=O)N1CCC(CO)(c2ccc3c(cnn3-c3cc(O)c(F)c(F)c3)c2)CC1` [Compound 28.01], for which the IC50 was 1000 to 30000 nM.
The same measure, in the same setting: then `COCC1(c2ccc3c(cnn3-c3cc(O)c(F)c(F)c3)c2)CCN(S(C)(=O)=O)CC1` [Compound 28.02, 2,3-Difluoro-5-(5-(4-(meth-oxymethyl)-1-(methylsul-fonyl)piperidin-4-yl)-1H-indazol-1-yl)phenol], with 100 to 1000 nM; and `CC1(c2ccc3c(cnn3-c3cc(O)c(F)c(F)c3)c2)CCN(S(C)(=O)=O)CC1` [Compound 28.03, 2,3-Difluoro-5-(5-(4-methyl-1-(methylsulfonyl)piperidin-4-yl)-1H-indazol-1-yl)phenol], with 1000 to 30000 nM; and `CS(=O)(=O)N1CCC(C#N)(c2ccc3c(cnn3-c3cc(O)c(F)c(F)c3)c2)CC1` [Compound 28.04, 4-(1-(3,4-Difluoro-5-hydroxy-phenyl)-1H-indazol-5-yl)-1-(methylsulfonyl)piperidine-4-carbonitrile], with 1000 to 30000 nM.
`Cc1cc(O)c(F)c(-n2ncc3cc(N4CCN(S(C)(=O)=O)CC4)ccc32)c1` [Compound 28.05, 2-Fluoro-5-methyl-3-(5-(4-(methylsulfonyl)piperazin-1-yl)-1H-indazol-1-yl)phenol]: the half-inhibitory concentration (IC50) lay within 1000 to 30000 nM.
Still for that read-out and setting: under `CS(=O)(=O)N1CCN(c2ccc3c(cnn3-c3nccc(O)c3F)c2)CC1` [Compound 28.06, 3-Fluoro-2-(5-(4-(methyl-sulfonyl)piperazin-1-yl)-1H-indazol-1-yl)pyridin-4-ol] stands 1000 to 30000 nM; under `CS(=O)(=O)N1CCN(c2ccc3c(cnn3-c3cc(O)cc(C(F)(F)F)c3)c2)CC1` [Compound 28.07, 3-(5-(4-(Methylsulfonyl)-piperazin-1-yl)-1H-indazol-1-yl)-5-(trifluoromethyl)phenol], 100 to 1000 nM.

Still in this assay, the particulars now being: read-out: HSD17β13 inhibition at 10 uM.
With `Cc1nc2cc(N3CCOCC34CC4)ncc2n1-c1cc(C(F)(F)F)c(F)c(O)c1F` [Compound 21.63, 2,6-Difluoro-3-(2-methyl-6-(7-oxa-4-azaspiro[2.5]octan-4-yl)-3H-imidazo[4,5-c]pyridin-3-yl)-5-(trifluoromethyl)phenol], the inhibition at 10 µM was less than 20%.

The same assay, now with this note: read-out: HSD17β13 inhibition at 30 uM.
For `CS(=O)(=O)N1CCN(c2ccc3c(c2)cc(C(=O)O)n3-c2ccc(F)c(O)c2)CC1` [Compound 21.61, 1-(4-Fluoro-3-hydroxyphenyl)-5-(4-(methylsulfonyl)piperazin-1-yl)-1H-indole-2-carboxylic acid], the inhibition at 30 µM is less than 20%.
As to `COC(=O)c1cc2cc(N3CCN(S(C)(=O)=O)CC3)ccc2n1-c1ccc(F)c(O)c1` [Compound 21.62, Methyl 1-(4-fluoro-3-hydroxy-phenyl)-5-(4-(methylsulfonyl)-piperazin-1-yl)-1H-indole-2-carboxylate], the inhibition at 30 µM is less than 20%.
Same read-out and setting: then `CS(=O)(=O)N1CCC(C(=O)O)(c2ccc3c(cnn3-c3cc(O)c(F)c(F)c3)c2)CC1` [Compound 28, 4-(1-(3,4-Difluoro-5-hydroxyphenyl)-1H-indazol-5-yl)-1-(methylsulfonyl)piperidine-4-carboxylic Acid], with 49%.

The term IC50 denotes the concentration that gives 50% inhibition. As usually defined, the inhibition is the share of the control response that was lost under treatment.

Values taken from patent publication US20240034736A1, “HSD17B13 INHIBITORS AND USES THEREOF” (FL2022-001, Inc., priority 2020, published 2024).
